Assay results published in US7067520B2, “Preventive or therapeutic medicines for diabetes containing fused-heterocyclic compounds or their salts” (Ishihara Sangyo Kaisha, Ltd., priority 2000, dated 2006).

Key:
[1] = test system: L6 cells; assay: Glucose uptake test by L6 cells; type: cell-based; settings: Rattus norvegicus, 1 hour, 2-deoxy-[3H]-glucose uptake, control (MEM solvent alone) = 100%, read-out: Ratio activity (%); for activity at 10 µg/mL: treatment concentration 10 μg/ml; for activity at 100 µg/mL: treatment concentration 100 μg/ml
Procedure: Glucose Uptake Test by L6 Cells
Each of compounds under test was applied to L6 cells (rat cells originally derived from skeletal muscles) by the following method to measure the stimulating effect on glucose uptake. Namely, L6 cells were suspended in α-minimum essential medium (hereinafter referred to simply as MEM) containing 10% fetal bovine serum (hereinafter referred to simply as FBS), and inoculated into a 96-well plastic plate in an amount of 5×10^4 cells/well and cultivated in an incubator (5% carbon dioxide gas, 37° C.) until the cells grew all over the well. Then, the culture medium was switched to MEM solution containing 2% BS, followed by cultivation further for from 7 to 10 ays (the culture medium was exchanged every three days) to differentiate the cells into skeletal muscle cells. Then, the culture medium was replaced with MEM solution without FBS, followed by cultivation for three hours, and then the compound under test prepared to a treatment concentration (diluted with MEM solution without FBS) was reacted with the skeletal muscle cells at 37° C. for 1 hour. The cells were washed with Krebs-Henseleit-Ringer buffer solution (hereinafter referred to simply as KHR buffer solution), and 2-deoxy-[^3H]-glucose was added to the cells in the KHR buffer solution, followed by treatment at 37° C. for 10 minutes. The treatment solution was removed, the cells were washed with the KHR buffer solution, then the cells were dissolved in a 1N sodium hydroxide solution in an appropriate amount, and the [^3H] radio activity was measured by means of a liquid scintillation counter (cpm) The percentage of the glucose uptake was represented by the percentage of radio activity when the compound under test was applied, taking the radio activity of the control (the MEM solvent alone was applied) as 100%. Each of the compounds as identified in Table 27 was used for treatment at a concentration of each of 10 μg/ml and 100 μg/ml to examine the stimulating effect on glucose uptake.

| melting point | SMILES | activity at 10 µg/mL [1] [%] | activity at 100 µg/mL [1] [%] |
| --- | --- | --- | --- |
| 165 °C | CSc1nc2ccnn2c(NCc2ccccc2)c1C#N [Compound No. 2, 7-benzylamino-5-methylthiopyrazolo[1,5-a]pyrimidine-6-carbonitrile] | > 115 | > 115 |
| 190 °C | CSc1nc2ccnn2c(NCc2ccccn2)c1C#N [Compound No. 5] |  | > 115 |
| 192 °C | CSc1nc2ccnn2c(NCc2cccnc2)c1C#N [compound 4] |  | > 115 |
| 132 to 133 °C | CCOCNc1c(C#N)c(SC)nc2ccnn12 [compound 9] | > 115 | > 115 |
| 121 to 122 °C | CSc1nc2ccnn2c(NCC2CCCCO2)c1C#N (stereo not shown) [compound 11] | > 115 |  |
| 216 °C | CNc1c(C#N)c(SC)nc2ccnn12 [compound 14] |  | > 115 |
| 133 °C | CCNc1c(C#N)c(SC)nc2ccnn12 [compound 15] |  | > 115 |
| 144 °C | CSc1nc2ccnn2c(N(C)C)c1C#N [compound 17] |  | > 115 |
| 169 °C | C#CCNc1c(C#N)c(C)nc2ccnn12 [compound 22] | > 115 | > 115 |
|  | Cc1nc2ccnn2c(N)c1C#N [compound 25] |  | > 115 |
| 143 °C | Cc1nc2ccnn2c(NCCc2ccccc2)c1C#N [compound 27] |  | > 115 |
| 125 °C | N#Cc1cnc2ccnn2c1NCc1ccccc1 [compound 28] |  | > 115 |
| 165 °C | Cc1nc2ccnn2c(NCc2ccncc2)c1C#N [compound 29] |  | > 115 |
| 136 °C | CSc1nc(NCc2ccncc2)n2nccc2n1 [compound 40] | > 115 | > 115 |
| 204 °C | CSc1nc2nccn2c(NCc2ccncc2)c1C#N [compound 43] | > 115 | > 115 |
| 172 °C | CSc1nc2cc(-c3ccccc3)nn2c(NCc2ccccc2)c1C#N [compound 46] |  | > 115 |
| 233 °C | CSc1nc2nc3ccccc3n2c(NCc2ccccc2)c1C#N [compound 47] |  | > 115 |
| 232 °C | CSc1nc2cc(-c3ccccc3)nn2c(NCc2ccncc2)c1C#N [compound 48] |  | > 115 |
| 183 °C | C#CCOc1c(C#N)c(SC)nc2ccnn12 [compound 53] |  | > 115 |
| 162 to 163 °C | C#CCNc1c(S(=O)(=O)c2ccccc2)c(SC)nc2ccnn12 [compound 60] | > 115 |  |
| 175 °C | C#CCNc1nc(SC)nc2ccnn12 [compound 64] | > 115 |  |
| 196 to 196.4 °C | CCSc1nc2ccnn2c(NCc2ccncc2)c1C#N [compound 68] | > 115 | > 115 |
| 187.8 to 189.2 °C (dec.) | N#Cc1c(SCc2ccccc2)nc2ccnn2c1NCc1ccncc1 [compound 71] | > 115 | > 115 |

| melting point | SMILES | activity at 10 µg/mL [1] [%] | activity at 100 µg/mL [1] [%] |
| --- | --- | --- | --- |
| 118 °C | CSc1nc2ccnn2c(NC2CCCC2)c1C#N [compound 79] | > 115 |  |
| 195 to 196 °C | CSc1nc2ccnn2c(Nc2ccccc2)c1C#N [compound 80] | > 115 |  |
| 188 °C | CSc1nc2ccnn2c(NCCC#N)c1C#N [compound 82] | > 115 |  |
| 144 to 146 °C | CSc1nc2ccnn2c(NCCCn2ccnc2)c1C#N [compound 83] |  | > 115 |
| 153.4 to 155.4 °C | N#Cc1c(SC2CCCC2)nc2ccnn2c1NCc1ccncc1 [compound 105] | > 115 |  |
| 164 to 165.5 °C (dec.) | COCSc1nc2ccnn2c(NCc2ccncc2)c1C#N [compound 108] |  | > 115 |
| 160 to 161.6 °C | CCOCSc1nc2ccnn2c(NCc2ccncc2)c1C#N [compound 118] | > 115 | > 115 |
| 124.5 to 126.5 °C | COC(=O)c1c(SC)nc2ccnn2c1NCc1ccccc1 [compound 120] | > 115 |  |
| 158.5 to 160.5 °C | COC(=O)c1c(SC)nc2ccnn2c1NCc1ccccc1 [compound 121] |  | > 115 |
|  | COC(=O)c1c(SC)nc2ccnn2c1Nc1ccccc1 [compound 122] | > 115 | > 115 |
| 154 to 155 °C | CSc1nc2ccnn2c(NCc2ccncc2)c1[N+](=O)[O-] [compound 126] | > 115 |  |
|  | CSc1nc2ccnn2c(NOCc2ccccc2)c1C(=O)O [compound 132] |  | > 115 |
| 126.5 to 127.5 °C | COC(=O)c1c(SC)nc2ccnn2c1NOC1OCCO1 [compound 133] | > 115 |  |
| 148.8 to 149.6 °C | COc1nc2ccnn2c(NCc2ccccc2)c1C#N [compound 135] | > 115 | > 115 |
| 148.3 to 149.7 °C | COc1nc2ccnn2c(NCC2OCCO2)c1C#N [compound 136] | > 115 | > 115 |
| 275 to 276 °C | CSc1nc2ccnn2c(Nc2ccc(Cl)cc2)c1C#N [compound 161] | > 115 |  |
| 122 °C | CSc1nc2ccnn2c(NCCOc2ccccc2)c1C#N [compound 181] |  |  |
| 125 °C | CSc1nc2ccnn2c(OCCOc2ccccc2)c1C#N [compound 182] |  |  |
| 138 °C | CSc1nc2ccnn2c(SCc2ccccc2)c1C#N [compound 183] |  |  |
| > 250 °C | CSc1nc2cc(C)nn2c(O)c1C#N [compound 184] |  |  |
| 182 to 187 °C | CSc1nc2cc(C)nn2c(Cl)c1C#N [compound 185] |  |  |
| 204 to 205 °C | CSc1nc2cc(C)nn2c(NCc2ccccc2)c1C#N [compound 187] |  |  |
| 190 to 191 °C | CSc1nc2cc(C)nn2c(NCc2ccncc2)c1C#N [compound 188] |  |  |

| melting point | SMILES | activity at 10 µg/mL [1] [%] | activity at 100 µg/mL [1] [%] |
| --- | --- | --- | --- |
| 185 to 187 °C | CSc1nc2cc(C)nn2c(Nc2ccccc2)c1C#N [compound 189] |  |  |
| 142 to 143 °C | COc1cccc(Nc2c(C#N)c(SC)nc3cc(C)nn23)c1 [compound 192] |  |  |
| > 280 °C | CSc1nc2ccnn2c(Nc2ccc(NC(C)=O)cc2)c1C#N [compound 193] |  |  |
| 153 to 155 °C | COC(=O)c1cccc(Nc2c(C#N)c(SC)nc3ccnn23)c1 [compound 194] |  |  |
| 168 to 171 °C | CSc1nc2ccnn2c(Nc2cccc(C(=O)O)c2)c1C#N [compound 195] |  |  |
| 190 to 191 °C | CSc1ccc(Nc2c(C#N)c(SC)nc3ccnn23)cc1 [compound 196] |  |  |
| > 280 °C | CSc1nc2ccnn2c(Nc2ccc(C(N)=O)cc2)c1C#N [compound 197] |  |  |
| 268 to 269 °C | CSc1nc2ccnn2c(Nc2ccc(CC#N)cc2)c1C#N [compound 198] |  |  |
| 260 to 261 °C | CSc1nc2ccnn2c(Nc2ccc(C(C)=O)cc2)c1C#N [compound 199] |  |  |
| 241 to 244 °C | CSc1nc2ccnn2c(Nc2ccc(S(C)(=O)=O)cc2)c1C#N [compound 201] |  |  |
| 250 to 252 °C | CSc1nc2ccnn2c(Nc2ccc(N(C)C)cc2)c1C#N [compound 202] |  |  |
| 182 to 183 °C | CSc1nc2ccnn2c(NOc2ncc(C(F)(F)F)cc2Cl)c1C#N [compound 204] |  |  |
| 185 to 187 °C | CSc1nc2ccnn2c(NCc2ncc(C(F)(F)F)cc2Cl)c1C#N [compound 207] |  |  |
| 152 to 153 °C | CSc1nc2ccnn2c(NOCC2OCCO2)c1C#N [compound 208] |  |  |
| 161 °C | CSc1nc2ccnn2c(NOCC2CCCCO2)c1C#N (stereo not shown) [compound 209] |  |  |
| 116 to 120 °C | CSc1nc2ccnn2c(NCC2CCCO2)c1C#N (stereo not shown) [compound 212] |  |  |
| 143 to 144 °C | CSc1nc2ccnn2c(NOCC2CCCO2)c1C#N (stereo not shown) [compound 213] |  |  |
| 206 to 208 °C | CSc1nc2ccnn2c(Nc2ccccc2C#N)c1C#N [compound 214] |  |  |
| 103 to 104 °C | CSc1nc2ccnn2c(NCCC2OCCCO2)c1C#N [compound 216] |  |  |
| 193 to 195 °C | CSc1nc2ccnn2c(NOCCC2OCCCO2)c1C#N [compound 217] |  |  |
| 102 to 103 °C | CCN(Cc1ccncc1)c1c(C#N)c(SC)nc2ccnn12 [compound 228] |  |  |
| 223 to 224 °C | COc1c(C#N)c(SC)nc2ccnn12 [compound 229] |  |  |
